Data on one molecule can be found in US8778437B2, “Taste improving substances” (Givaudan Nederland Services B.V., priority 2004, dated 2014).

This test has as its system panel. Kind of test: Panel comparison of carbonated lemonade with and without test substance (Example 3). It counts as in vivo. Conditions: 0.03 wt.% of spray dried sample of Example 2 in carbonated lemonade (10% sugar, 1200 ppm citric acid, 100 ppm ascorbic acid, pH 3). The method, then:
A basic carbonated lemonade containing 10% sugar, 1200 ppm citric acid and 100 ppm ascorbic acid, was prepared. The pH of the lemonade was 3. This was used as the control. To the test lemonade the spray dried sample described in Example 2 was added in an amount of 0.03 wt. %. The two lemonades were compared by a panel.

Regarding `CC(O)C(=O)NCCOP(=O)(O)O` (stereo not shown) [N-lactoyl-ethanolaminie-phosphate, N-Lactoyl ethanolamine phosphate], the “taste description of lemonade compared with control” value is reported as “more acidic, more natural, more juicy, more complex”.
